# Reference: US7629317B2, “Control of growth and repair of gastro-intestinal tissues by gastrokines and inhibitors” (The University of Chicago, priority 2001, dated 2009)
# “Also recorded” adds a separate entry of the source.
# What was measured:
# IEC-18 cells = assay: Growth of confluent cultures of IEC-18 cells (cell count); assay type: cell-based, rat
# Protocol: Confluent cultures of IEC-18 cells were prepared. One day later, medium was aspirated and replaced with 5 ml of DMEM containing CS (0.5%) and insulin, without (control) or with mitogenic peptide 58-99 (8 μg/ml). Sister plates receiving 1 ml medium and different amounts of peptide 67-85 were incubated at 1 hr at 38° C. on a CO2 incubator, and then an additional 4 ml of medium was added to each dish. Peptide 58-99 was added to 2 of the 4-sister plates at each concentration of peptide 67-85, and the number of cells was counted. […] Stimulation of cell growth by mitogenic peptide 58-99 was completely abolished by preincubation of cells with 0.25 μg/ml of peptide 67-85. […] Values for the number of cells per culture are shown relative to multiplication of cells exposed to the vehicle during the same period.
# Urea (6 M) was employed to release proteins from the insoluble fraction solubilize rhAMP-18 containing the His6-tag (SEQ ID NO: 16), and make it available to bind to the Ni^2+-charged resin from which it was subsequently eluted with a gradient of imidazole (0 to 200 mM). The amount of eluted rhAMP-18 was measured using the BCA assay, and the appearance of a single band at the predicted size of 19-20 kD was confirmed by SDS-PAGE followed by immunoblotting. To determine if eluted rhAMP-18 renatured to assume a structure that was mitogenic, aliquots of the eluate (following removal of urea and imidazole by dialysis) were added to cultures of IEC-18 cells and the number of cells was counted 4 days later. […] AMP peptide 77-97 refers to the mature protein; same as peptide 97-117 of human precursor protein: Table 1. These observations indicate that biologically active recombinant human AMP-18 that can be utilized in diverse clinical situations is available. The mitogenic potency of rhAMP-18 is in the nanomolar range which would be expected for a native gastric cell growth factor that participates in the maintenance and repair of the stomach in vivo.
# (§1) To characterize the capacity of gastric and intestinal cells to respond to AMP-18, AGS gastric adenocarcinoma cells, HAE human gastric antrum mucosa primary cultures transformed with SV40 large T antigen, rat diploid small intestinal epithelial cells of the IEC-6 (FIG. 15) and IEC-18 lines, NCI N-87 gastric carcinoma cells, and SK-GT5 gastroesophageal adenocarcinoma cells were studied; human WI-38 fibroblasts and HeLa cells served as non-GI control cell lines. Mitogenesis was assayed by performing cell counts 3 to 4 days after exposing cells to the agent of interest, trypsinizing the culture to prepare single cells, and confirming this while counting them in a hemocytometer.
# AGS cells = assay: Growth of gastric epithelial AGS cells (cell count four days later); assay type: cell-based, human; conditions: for growth stimulation of AGS cells (in words): peptide 77-97 8 μg/ml, EGF 50 ng/ml at saturating doses
# Protocol: as §1
# [1] = test system: BSC-1 epithelial cell line; assay: Growth (mitogenesis) assay on confluent BSC-1 cells, cells counted 4 days later; assay type: cell-based, monkey; conditions: for antagonism of the activity of peptide 78-119: inactive overlapping peptide with the mitogenic 42-mer; for antagonism of the activity of peptide 104-117: inactive peptide with the mitogenic 14-mer; for K1/2; concentration for half-maximal growth stimulation / EC50: synthetic peptides of Table 1; for mitogenic activity (in words): compared with related peptides; for EC50: read-out: K1/2, concentration for half-maximal growth stimulation
# Description: Finding that a 42-amino acid peptide representing a central region of the novel antrum mucosal cell protein AMP-18 had mitogenic activity similar in character to that of the intact protein in pig and mouse antrum extracts (Table 1), has facilitated the characterization of the bio-active region of the molecule. […] Growth activity determinations have so far been accomplished with the kidney epithelial cell line as well as several gastric and intestinal lines.
# Non-transformed monkey kidney epithelial cell line BSC-1 and other epithelial cell lines were used to assess effects on growth. In general, conditions were chosen for each line such that cells are grown to confluence in plastic dishes in supplemented growth medium with minimal calf (or fetal) serum for growth (Lieske et al., 1997); BSC-1 cells become confluent at 10^6/60 mm dish with 1% calf serum. At the start of the growth assay the medium on the confluent culture was aspirated and replaced with fresh medium with minimal serum to maintain viability (0.01% for BSC-1) cells. AMP-18 preparations were added to the culture medium and 4 days later the cell monolayer was rinsed, detached with trypsin, and the cells were counted using a hemocytometer. Determination of the capacity of AMP-18 to initiate DNA synthesis was measured by the incorporation of [^3H]thymidine (Toback, 1980); to confirm the DNA synthesis assay, autoradiograms of leveled cells were counted (Kartha and Toback, 1985).
# Helicobacter pylori = assay: Growth inhibition on a bacterial lawn (filter diffusion); assay type: cell-based; conditions: solution on filter
# Protocol: To determine if AMP peptide inhibits growth of H. pylori, a lawn of bacteria was prepared on a culture dish. A small circular filter was placed in the center of the dish, a solution of a test agent was placed on the filter so it diffused onto the lawn, and its effect on bacterial growth around the filter was measured. AMP peptide 77-97 (SEQ ID NO: 12) (Table 1), a scrambled version of this AMP peptide (negative control) (SEQ ID NO: 19), or the antibiotic clarithromycin (positive control) was added to a filter on different cultures. […] In addition, AMP peptide could serve as a therapeutic agent to treat H. pylori infections in the stomach, and thereby prevent the capacity of this organism to cause gastritis, gastric ulcers, and gastric adenocarcinomas.
# [2] = test system: occludin, ZO-1, ZO-2, claudin-5, E-cadherin, JAM; assay: Accumulation of tight and adherens junction proteins in C2 cells (immunoblot of insoluble fraction, confocal microscopy); assay type: cell-based, human; conditions: 8 hr; peptides 8 μg/ml, EGF 50 ng/ml
# Protocol: To find out how the peptide exerts its cytoprotective effect, C2 cell monolayers were treated with AMP peptide, and oxidant injury was induced with monochloramine 18 hours later. Changes in the levels of specific tight junction (TJ) proteins were checked. Cells were lysed, and proteins of the insoluble/particulate fraction were studied by immunoblotting. […] This observation represents the first evidence that AMP peptide enhances accumulation of specific TJ proteins in colonic epithelial cells. […] To carry out this experiment, C2 cells were exposed to AMP peptide for different periods of time, the NP-40-insoluble fraction was obtained, Western blots were prepared, and the amount of each immunoreactive protein was quantified. A 65% increase in immunoreactivity of each protein compared to control was detected for occludin after 2 hr, and for ZO-1 at 8 hr. Hsc73, which is constitutively expressed in these cells, was not altered by exposure to AMP peptide for up to 18 hr.
# Confluent monolayers of C2 cells were treated with AMP peptide or vehicle for 8 hr. Cells were then collected, proteins in the NP-40-insoluble fraction were separated by SDS-PAGE, immunoblots were prepared, and the relative amounts of immunoreactive proteins were compared by densitometric analysis. […] These changes appear relatively specific for occludin, ZO-1, ZO-2, claudin-5, E-cadherin, and JAM because they were not observed for several other proteins localized in the TJ (claudin-1, claudin-2), adherens junction (β-catenin), plasma membrane (Na-K-2Cl cotransporter, α or β subunit of Na-K-ATPase), or cytosol (Rho A, hsc73).
# To better understand the mechanism(s) by which AMP peptide enhances accumulation of TJ-associated proteins, experiments were performed to determine whether the peptide exerted its effect at the apical or basolateral surface of C2 cells. Monolayers of C2 cells were grown on Transwell filters, AMP peptide (8:g/ml) was added to the apical or basolateral compartment of the Transwell, and cells were harvested 8 hr later. The NP-40-insoluble fraction was obtained, its proteins separated, and immunoblots were prepared.
molecule,measurement,setting,value
KKEVMPSIQSLDALVKEKK [87–105],concentration nearly abolishing growth-stimulatory effect of peptide 58-99,IEC-18 cells; FIG. 17,~0.1 µg/mL
same,concentration completely abolishing growth stimulation by peptide 58-99,"IEC-18 cells; preincubation of cells, peptide 58-99 8 μg/ml",0.25 µg/mL
same,inhibition of growth stimulation by peptide 58-99,AGS cells,completely inhibits
same,growth stimulation of AGS cells (in words),AGS cells,not stimulated
same,antagonism of the activity of the protein in stomach extracts,[1],block
same,antagonism of the activity of peptide 78-119,[1],block; also recorded: antagonize
same,antagonism of the activity of peptide 104-117,[1]; listed as peptide 87-105,blocks; also recorded: antagonizes
same,K1/2; concentration for half-maximal growth stimulation,[1],Inactive
CC[C@H]1OC(=O)[C@H](C)[C@@H](O[C@H]2C[C@@](C)(OC)[C@@H](O)[C@H](C)O2)[C@H](C)[C@@H](O[C@@H]2O[C@H](C)C[C@H](N(C)C)[C@H]2O)[C@](C)(OC)C[C@@H](C)C(=O)[C@H](C)[C@@H](O)[C@]1(C)O [clarithromycin],growth of H. pylori lawn,Helicobacter pylori,inhibited growth
"KKTCIVHKMKKEVMPSIQSLDALVKEKKLQGKGPGGPPPKGL [78–119, 42 amino acid peptide of human preAMP-18, peptide 58-99 of the mature protein]",increase in cell number,"IEC-18 cells; 3 days, peptide 58-99 8 μg/ml, EGF 50 ng/ml, vehicle 290%",407%
same,mitogenic activity (in words),[1],good mitogenic activity
same,EC50,[1],300 nM
KKTCIVHKMKK [78–88],antagonism of the activity of the protein in stomach extracts,[1],block
same,antagonism of the activity of peptide 78-119,[1],block; also recorded: antagonize
same,antagonism of the activity of peptide 104-117,[1]; listed as 68-88,NOT
same,antagonism of the activity of peptide 104-117,[1]; listed as peptide 78-88,does not
same,K1/2; concentration for half-maximal growth stimulation,[1],Inactive
LDALVKEKKLQGKGPGGPPPKGLMY [97–121],mitogenic activity (in words),[1],more active
same,EC50,[1],200 nM
KKLQGKGPGGPPPKGLMY [104–111],mitogenic activity (in words),[1],slightly less activity
same,EC50,[1],1000 nM
GPGG [110–113],K1/2; concentration for half-maximal growth stimulation,[1],Inactive
"KKLQGKGPGGPPPK [104–117, 14 amino acid mitogenic domain]",activity relative to the 42-amino acid peptide,[1]; from the higher K1/2 value,30-40%
same,EC50,[1],800 nM
KGPGGPPPK [109–117],EC50,[1],2500 nM
LDTMVKEQK . . . GKGPGGAPPKDLMY (LDTMVKEQKGKGPGGAPPKDLMY) [97–119],EC50,[1],200 nM
"GKPLGQPGKVPKLDGKEPLAK [97–117**, scrambled version of AMP peptide 77-97, negative control, reference compound]",growth stimulation of IEC-18 cells (in words),"IEC-18 cells; added alone, peptides up to 8 μg/ml",did NOT stimulate growth
same,growth stimulation of AGS cells (in words),AGS cells,not stimulated
same,accumulation of occludin and ZO-1 (specificity),[2],not replicated
same,growth of H. pylori lawn,Helicobacter pylori; listed as scrambled AMP peptide,not
same,growth of H. pylori lawn,Helicobacter pylori; listed as scrambled peptide,did not inhibit growth
same,growth stimulation of BSC-1 cells,[1]; concentrations up to 8 μg/ml,did NOT stimulate growth
KKLQGK [104–109],EC50,[1],7400 nM
"intact AMP protein: the intact, natural gastrokine AMP-18 protein of antrum mucosa (protein) YTVNINGNDGNVDGSGQQSVSINGVHNVANIDNNNGWDSWNSLWDYENSFAATRLFSKKSCIVHRMNKDAMPSLQDLDTMVKEQKGKGPGGAPPKDLMYSVNPTRVEDLNTFGPKIAGMCRGIPTYVAEEIPGPNQPLYSKKCYTADILWILRMSFCGTSVETY",estimate for the activity of the intact AMP protein,[1]; estimate,1 to 10 nM
